Assay results as given in US20050124618A1, “Methods of modulating angiogenesis and cancer cell proliferation” (priority 2003, published 2005).

Columns and labels:
CYP4A11 mRNA = assay: RT-PCR of CYP4A11 mRNA in U251 cultures; assay type: cell-based, human; conditions: 10 μM HET0016 for 24 hr
Protocol: EtOH-treated cultures were used as solvent controls. Briefly, total RNA was isolated with Trizol reagent (Invitrogen) and 1-2 μg RNA was used to synthesize cDNA using a First Strand synthesis kit (Invitrogen). We used PCR primers that specifically recognize CYP4A11, and β-actin-specific primers. A 1 μCi ^32P per sample was added to Platinum PCR Supermix (Invitrogen). The PCR conditions used to amplify CYP4A 11 and β-actin consisted of a precycle of 95° C for 3 min followed by 35 cycles of 95° C for 45 s, 52° C. for 30 s, and 72° C. for 2 min, with final extension at 72° C. for 10 min. The primers used were: β-actin forward primer, 5′-TGCGTGACATTAAGGAGAAG-3′ (SEQ ID NO:3); β-actin reverse primer, 5′-GCT CGT AGC TCT TCT CCA-3′ (SEQ ID NO:4); CYP4A11 forward primer, 5′-CCACCTGGACCAGAGGCCCTACACCACC-3′ (SEQ ID NO:5); CYP4A11 reverse primer, 5′-AGGATATGGGCAGACAGGAA-3′(SEQ ID NO:6). PCR products were subjected to electrophoresis in 5% bis-acrylamide gels and visualized by autoradiography.

20-HETE [1] = conditions: cited from earlier work
20-HETE [2] = assay: 20-HETE formation in electrically stimulated skeletal (TA) muscle of rats; assay type: in vivo, rat
Protocol: Experimental protocols and tissue preparation: After a 24-h recovery period, the implanted stimulator was activated by momentary closure of the magnetic reed switch using a small hand-held magnet. […] Contractions of the extensor digitorum longus (EDL) and tibialis anterior (TA) muscles were automatically initiated at 9 AM each day and sustained for 8 h/day over a consecutive 7-day period. At the end of the stimulation period, the animals were euthanized by an overdose of pentobarbital sodium (100 mg/kg ip), and the EDL and TA muscles were harvested for analysis as previously described (Greene A S et al., Hypertension 15: 779-783, 1990; and Parmentier J H et al., Hypertension 37: 623-629, 2001).
The rats were divided in four groups. […] This dose was chosen based on our previous results (Kehl F et al., Am J Physiol Heart Circ Physiol 282: H1556-H1565, 2002).
To determine the contribution of VEGF to the angiogenesis induced by electrical stimulation, six rats in group 3 were treated with 3 mg/kg ip injections of a monoclonal VEGF-neutralizing antibody (Texas Biotechnology; Houston, Tex.) during the period of electrical stimulation. The protocol for administration of VEGF-neutralizing antibody was modified from Zheng W et al. (Circ Res 85: 192-198, 1999), and this dose was based on our previous results (Amaral S L et al., Microcirculation 8: 57-67, 2001). After the stimulation period was started, the rats received intraperitoneal injections on days 3, 5, and 7 (0.6 mg/100 g).
Muscle preparations for measurement of 20-HETE: The 100-200 mg of frozen TA muscle were homogenized in a solution containing 1 ml of acidified water and 50 μl of an internal standard, WIT-002, which was synthesized and kindly provided by Taisho Pharmaceutical. Ethyl acetate (3 ml, Fisher Scientific; Pittsburgh, Pa.) was added to the mixture and gently vortexed. The homogenized tissues were then centrifuged at 3,000 revolutions/min for 2 min. With the use of a glass Pasteur pipet, the top layer was removed and transferred to a sterile glass vial, and the samples were dried under nitrogen and stored at −80° C.
Labeling of samples and fluorescent detection of 20-HETE: Detection of 20-HETE was performed as previously described (Ma Y H et al., Am J Physiol Regul Integr Comp Physiol 267: R579-R589, 1994). Samples, which were extracted and dried under argon, were resuspended in 20 μl of acetonitrile containing 36.4 mM 2-(2,3-napthalimino)ethyl trifluoromethanesulfonate, and N,N-diisopropylethylamine (10 μl) was added as a catalyst. The sample was reacted for 30 min at room temperature, dried under argon, resuspended in 1 ml of 40% acetonitrile-water, and applied to a Sep-Pak Vac column. The column was washed with 6 ml of 50% acetonitrile-water solution to remove unreacted dye, eluted with 500 μl of ethyl acetate, dried under argon, and resuspended in 100 μl of the HPLC mobile phase [methanol-water-acetic acid, 82:18:0.1 (vol/vol)]. A 25-μl aliquot of the derivatized sample was separated on a 4.6×250-mm Symmetry C18 reverse-phase HPLC column (Waters) isocratically at a rate of 1.3 ml/min using methanol-water-acetic acid (82:18:0.1 (vol/vol)) as the mobile phase. Fluorescence intensity monitored using an in-line fluorescence detector (model number L-7480, Hitachi; Naperville, Ill.) at medium gain sensitivity. The amount of 20-HETE in the sample was determined by comparing the area of the 20-HETE peak with that of the internal standard (WIT-002).

Structure (SMILES): CCCCc1ccc(N=CNO)c(C)c1 [HET0016, N-hydroxy-N′-(4-butyl-2 methylphenyl) formamidine]
- CYP4A11 transcript levels (CYP4A11 mRNA): decreased
- ability to reduce 20-HETE levels in vivo (20-HETE [1]): reduce 20-HETE levels in vivo
- effect on the increase of 20-HETE formation induced by electrical stimulation (20-HETE [2]; 7 days of electrical stimulation, chronic treatment): completely blocked
- 20-HETE formation in skeletal muscle, unstimulated side (20-HETE [2]; rats treated 7 days, TA muscle): 110.26±28.36 ng/g muscle
- 20-HETE formation in skeletal muscle, stimulated side (20-HETE [2]; rats treated 7 days, TA muscle, 7 days electrical stimulation): 102.1±22.3 ng/g muscle
- effect on basal formation of 20-HETE in skeletal muscle (20-HETE [2]; treatment for 7 days): did not change the basal formation
